The results in this text go back to US20210106566A1, “PHARMACEUTICAL COMPOSITION FOR TREATING AND/OR PREVENTING PERIPHERAL NEUROPATHY OR SPINAL CORD INJURY” (NATIONAL UNIVERSITY CORPORATION NAGOYA UNIVERSITY, priority 2015, published 2021).

For assay [1], the system named is severely crushed spinal cord model mice. Description: Severely crushed spinal cord model mice: rotarod test. In kind it is in vivo, mouse. An excerpt:
Female C57BL/6J mice (8 weeks old; 19.5-22.0 g) were purchased from Charles River. The female C57BL/6J mice were anesthetized by intraperitoneally administering pentobarbital sodium and underwent back incision under a sterile condition to perform laminectomy at the 10th thoracic vertebra. The spinal cord was crushed at 100 kdyn using a tip with a diameter of 1.35 mm on IH Spinal Cord Impactor. After the occurrence of hematoma in the spinal cord was confirmed under a microscope, the wound was closed and 1 ml of physiological saline was subcutaneously injected into the posterior neck region to prevent dehydration. The mice with spinal cord injury were separated into two groups in a blinded fashion. […] One day after surgery, motor function of mice in both groups was assessed using BMS score (Basso mouse scale; Li et. al. J Neurosurg Spine 4: 165-173 (2006)) in a blinded fashion to select the mice with BMS score of 1 or lower and consider them as severely crushed spinal cord model mice. […] The latency until a mouse fell off the rotarod (holding time, in seconds; a maximum latency of 300 seconds) was measured in the accelerating rotation mode with an initial speed of 2 rpm, an accelerated speed of 5 rpm/min, and a maximum speed of 40 rpm. The latency was measured 3 times at an interval of 10 minutes and the three measurements were averaged for assessment (FIG. 15).
In general terms: The rotarod test checks motor coordination on a turning rod.

In assay [2] the test system is primary motor neurons. As to the kind of experiment: Scratch assay of neurite regeneration. Format: cell-based, mouse. As to conditions: 0, 1, 10, or 20 μmol/L, 48 hours after scratch. On the procedure:
Primary cultured motor neurons were seeded in a Nun Lab-Tek Chamber Slide (Thermo Scientific) coated with poly-L-lysine at 8.0×10^4 cells/cm^2×0.7 cm^2/well and then cultured in Sumilon neuron culture medium for 48 hours. Neurites of primary motor neurons were linearly scratched off with a 200 μL sterile pipette tip. The cells were immediately rinsed with PBS and cultured in Sumilon neuron culture medium containing 0, 1, 10, or 20 μmol/L zonisamide for 48 hours. The cells were fixed in 4% paraformaldehyde and immunostained with neuron-specific β-III tubulin monoclonal antibody (1:1000, MAB1195, R&D systems) and Alexa Fluor 488-conjugated goat anti-mouse secondary antibody (Life Technologies). Images of the scratched areas were acquired on a microscope (Olympus LX71). The neurite lengths of primary motor neurons in the scratched areas were automatically measured with MetaMorph software (Universal Imaging).

In assay [3] the test system is mouse sciatic nerve autologous transplantation model. Description: Mouse sciatic nerve autologous transplantation model: number and area of myelinated axons. As to conditions: 30 mg/kg/day to the stomach, one week after surgery, section 0.7 mm distal to the distal transection site. In kind it is in vivo. From the text: Adult male C57BL/6J mice (8 weeks old; 19.5-22.0 g) were purchased from Charles River. The mice were anesthetized with isoflurane and underwent gluteal muscle incision under a sterile condition to expose the sciatic nerve in the left leg. The sciatic nerve was cut at the following two sites (1) and (2): (1) the site 3 mm distal to the first bifurcation of biceps femoris (hereinafter referred to as proximal transection site) (2) the site 3 mm distal to the proximal transection site (hereinafter referred to as distal transection site) The excised nerve segment with a length of 3 mm was confirmed to be completely cut at the two sites. The perineurium was sutured with nylon thread (10-0 black) at the proximal transection site and the distal transection site under a microscope. The remaining thread was used as a marker for finding the nerve transection site in the sacrifice of the mice. In order to reduce DMSO toxicity, a solution of 60 mg/mL zonisamide in 100% DMSO was prepared and the solution was diluted in olive oil to give a solution of 3 mg/mL zonisamide in 5% DMSO. […] Myelin sheath formation in the sciatic nerve was analyzed in six mice in each group. […] The number and area of myelinated axons in the sciatic nerve were manually measured using ImageJ software in a blinded fashion.

For assay [4], the system named is primary motor neurons. As to the kind of experiment: Time-lapse imaging of axonal growth. In kind it is cell-based, mouse. On the procedure: Primary cultured motor neurons were seeded in a 96-well plate at 6.0×10^3 cells/well in Sumilon neuron culture medium to induce neurite outgrowth. Phase-contrast images were taken every 8 hours for 3 days on IncuCyte ZOOM Live Cell Imaging System (Essen Bioscience). The neurite length was automatically analyzed with NeuroTrack software (IncuCyte).

Assay [5] deals with Bdnf, Ngf, Ntf4, Ntrk1, Ntrk2, Map2, Mapt, and Gap43. Description: Severely crushed spinal cord model mice: mRNA in spinal cord segments. Format: in vivo, mouse. As to conditions: spinal cord segment distal to the damaged area, 28 days after surgery, versus control group. An excerpt:
Severely crushed spinal cord model mice were produced according to the “Method of producing severely crushed spinal cord model mice” as described in Example 8. Spinal cords were isolated from four mice in the zonisamide administration group and four mice in the control group 28 days after surgery and the segment of the damaged area with a length of 5 mm and the segment with a length of 5 mm distal to the damaged area were collected (FIG. 16). Total RNA was isolated using Trizol (Thermo Fisher Scientific) from each spinal cord segment with a length of 5 mm. Single-stranded cDNA was synthesized using ReverTra Ace (Toyobo). The mRNA expression levels of neurotrophic factors, Bdnf, Ngf, Ntf4, Ntrk1, Ntrk2, Map2, Mapt, and Gap43 were quantified using LightCycler 480 Real-Time PCR (Roche) and SYBR Green (Takara) (FIGS. 17, 18, 19, 20, 21, 22, 23, and 24). The mRNA levels were normalized with the expression level of GAPDH.

Consider `NS(=O)(=O)Cc1noc2ccccc12` [Zonisamide, 3-sulfamoylmethyl-1,2-benzisoxazole], for which, in assay [1] (day 28 after surgery, 30 mg/kg/day intragastrically), the “holding time on rotarod” value is 135.3 ± 16.4 s. Besides, in assay [1] (days 21 and 28 after surgery), the “holding time on rotarod compared to the control group” value is “longer”. In addition, the “neurite length in the scratch assay” value in the assay on primary motor neurons [2] is recorded as “dose-dependent increase”. In assay [3], the “area of axons, increase compared to the zonisamide non-administration group” value is recorded as 3.9 fold and the number of axons entry is reported as “unchanged”. For the same compound, in the assay on primary motor neurons [4] (forty hours after zonisamide administration, FIG. 3), the “neurite outgrowth effect, time-lapse imaging” value is on record as “neurite outgrowth effect was observed”. Further, in the assay on primary motor neurons [4] (throughout the observation period (3 days)), the “neurite outgrowth effect, 10 μmol/L versus 1 μmol/L” value is listed as “higher in the 10 μmol/L zonisamide administration group than in the 1 μmol/L zonisamide administration group”. In assay [5], the “expression level of MAP2 gene” value is reported as “significantly increased”, the “expression level of NGF” value was “seemed to be increased” and the “expression level of Tau gene” value is reported as “significantly increased”.
